A short description of this test: Electrophysiology Assays: Patch clamp electrophysiology was used to assess the efficacy and selectivity of sodium channel blockers in dorsal root ganglion neurons. Rat neurons were isolated from the dorsal root ganglions and maintained in culture for 2 to 10 days in the presence of NGF (50 ng/ml) (culture media consisted of NeurobasalA supplemented with B27, glutamine and antibiotics). Small diameter neurons (nociceptors, 8-12 μm in diameter) were visually identified and probed with fine tip glass electrodes connected to an amplifier (Axon Instruments). The voltage clamp mode was used to assess the compound's IC50 holding the cells at −60 mV. In addition, the current clamp mode was employed to test the efficacy of the compounds in blocking action potential generation in response to current injections. The results of these experiments contributed to the definition of the efficacy profile of the compounds. A general note: The patch-clamp technique gives a direct electrical read-out from membranes.
`O=C(O)c1ccc(NC(=O)c2cc3ccccc3nc2Oc2ccc(F)cc2Cl)cn1`: the IC50 worked out at 96 nM.

As to `COc1cc(F)ccc1Oc1nc2ccccc2nc1C(=O)Nc1nnn[nH]1`, the IC50 came to 2200 nM.

Consider `O=C(O)c1ccc(NC(=O)c2cc3ccccc3nc2Oc2ccc(F)cc2F)cn1`, for which the IC50 stood at 255 nM.

`NS(=O)(=O)c1cccc(NC(=O)c2cc3ccccc3nc2Oc2ccccc2OC(F)F)c1`: the IC50 worked out at 24 nM.

`O=C(O)c1ccc(NC(=O)c2cc3ccccc3nc2Oc2ccccc2OC(F)F)cc1`: the concentration for half-maximal inhibition (IC50) is 975 nM.

Regarding `COc1ccc(Oc2nc3ccccc3cc2C(=O)Nc2ccc(C(=O)O)cc2)c(OC)c1`, the IC50 was 550 nM.

On to `Cc1cc(F)ccc1Oc1nc2ccccc2cc1C(=O)Nc1ccc(C(=O)O)cc1`, for which the IC50 turned out to be 315 nM.

Turning to `O=C(O)c1ccc(NC(=O)c2cc3ccccc3nc2Oc2ccc(F)cc2F)cc1`, the 50% inhibitory concentration (IC50) turned out to be 275 nM.

The term IC50 denotes the concentration that gives 50% inhibition.

The values above are taken from ChEMBL document CHEMBL5726462, “Substituted quinolines as modulators of sodium channels” (2017).
